# Reference: patent US4514413A, “Gastric acid secretion inhibiting N-(imidazol-1-ylalkyl)thiourea derivatives” (BASF Aktiengesellschaft, priority 1982, dated 1985)
# How the values were obtained:
# [1] = system: secretion of gastric acid; assay: Inhibition of the gastric secretion in the rat (pH at the surface of the gastric mucous membrane); type: in vivo, female Sprague-Dawley rats; details: for R.A. (relative activity), inhibition of the gastric secretion: cimetidine = 1.00, subcutaneous administration; for ED 0.75 (dose which increases the pH by 0.75 on average compared with untreated control animals): subcutaneous administration, 1 hour pretreatment, 48 h fasted
# Description: Inhibition of the secretion of gastric acid results in an increase in the pH of the gastric mucus membrane. This is investigated on groups of 5 conscious female Sprague-Dawley rats weighing 160-180 g. The animals receive no food for 48 hours (water ad libitum), and are pretreated subcutaneously with various doses of the test substances. […] The dose which increases the pH by 0.75 on average compared with untreated control animals is determined, as the ED 0.75, from the linear regression between the logarithms of the applied doses and the increase in the pH (Table 2).
# [2] = biological target: T1, histamine H2 receptor (Rattus norvegicus, UniProt P25102); assay: Inhibition of the dimaprit-induced lowering of the blood pressure (histamine H2 receptor-blocking action); type: in vivo, male Sprague-Dawley rats; details: for R.A. (relative activity), inhibition of the dimaprit-induced lowering of the blood pressure / inhibition of dimaprit-induced lowering of the blood pressure (in words): rat
# T1 construct: In male Sprague-Dawley rats (weight 210-310 g) which have been anesthetized with urethane; from tissue; host or cells: whole animal in vivo: anesthetized male Sprague-Dawley rats
# T1 sequence (P25102 whole entry): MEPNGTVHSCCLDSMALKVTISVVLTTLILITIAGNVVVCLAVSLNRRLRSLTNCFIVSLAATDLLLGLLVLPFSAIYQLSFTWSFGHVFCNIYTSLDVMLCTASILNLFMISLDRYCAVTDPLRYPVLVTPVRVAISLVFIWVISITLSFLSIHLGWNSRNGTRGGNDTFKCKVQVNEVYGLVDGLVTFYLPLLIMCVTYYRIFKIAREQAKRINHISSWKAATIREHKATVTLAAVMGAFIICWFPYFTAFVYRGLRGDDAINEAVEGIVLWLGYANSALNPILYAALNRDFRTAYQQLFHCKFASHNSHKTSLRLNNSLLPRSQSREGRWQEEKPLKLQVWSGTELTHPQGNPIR
# Description: The substances tested were administered intravenously 5 minutes before the dimaprit injection. The ED 50% is determined as the dose which inhibits the dimaprit-induced lowering of the blood pressure by 50% (Table 1).
# [3] = cimetidine = 1.00, urethane anesthesia, intravenous administration
# [4] = urethane anesthesia, intravenous administration
structure (smiles),measurement,setting,value
"CN/C(=N/CCSCc1nc[nH]c1C)NC#N [Cimetidine, reference compound]","R.A. (relative activity), inhibition of the gastric secretion",[1],1.00
same,ED 0.75 (dose which increases the pH by 0.75 on average compared with untreated control animals),[1],0.45 mg/kg
same,"R.A. (relative activity), inhibition of the dimaprit-induced lowering of the blood pressure",[2]; [3],1.00
same,inhibition of dimaprit-induced lowering of the blood pressure (in words),[2]; [4],specific and dose-dependent inhibition
"Cc1nccn1CCCNC(=S)NCCSCc1ccc(CN(C)C)o1.O=C(O)C(=O)O.O=C(O)C(=O)O [Example No. 1, N-[3-(2-methylimidazol-1-yl)-propyl]-N'-{2-[[5-(N,N-dimethylaminomethyl)-furan-2-yl]-methylthio]-ethyl}-thiourea dioxalate]","R.A. (relative activity), inhibition of the gastric secretion",[1],8.65
same,ED 0.75 (dose which increases the pH by 0.75 on average compared with untreated control animals),[1]; in mg/kg,0.052
same,times more effective than cimetidine,"[1]; vs cimetidine, inhibition of gastric acid secretion, subcutaneous",8.7 times
same,times more effective than ranitidine,"[1]; vs ranitidine, inhibition of gastric acid secretion, subcutaneous",1.7 times
same,"R.A. (relative activity), inhibition of the dimaprit-induced lowering of the blood pressure","[2]; in vivo, iv",23.91
"CC(C)c1nccn1CCCNC(=S)NCCSCc1ccc(CN(C)C)o1 [Example No. 2, N-[3-(2-isopropylimidazol-1-yl)-propyl]-N'-{2-[[5-(N,N-dimethylaminomethyl)-furan-2-yl]-methylthio]-ethyl}-thiourea]","R.A. (relative activity), inhibition of the dimaprit-induced lowering of the blood pressure",[2]; [3],22.00
"CCc1nccn1CCCNC(=S)NCCSCc1ccc(CN(C)C)o1 [Example No. 3, N-[3-(2-ethylimidazol-1-yl)-propyl]-N'-{2-[[5-(N,N-dimethylaminomethyl)-furan-2-yl]-methylthio]-ethyl}-thiourea dioxalate]","R.A. (relative activity), inhibition of the dimaprit-induced lowering of the blood pressure",[2]; [3],12.94
CCCc1nccn1CCCNC(=S)NCCSCc1ccc(CN(C)C)o1 [Example No. 4],"R.A. (relative activity), inhibition of the dimaprit-induced lowering of the blood pressure",[2]; [3],10.00
"Cc1nc(C)n(CCCNC(=S)NCCSCc2ccc(CN(C)C)o2)c1C [Example No. 8, N[3-(2,4,5-trimethylimidazol-1-yl)-propyl]-N'{2-[[5-(N,Ndimethylamino-methyl)-furan-2-yl]-methylthio]-ethyl}-thiourea]","R.A. (relative activity), inhibition of the dimaprit-induced lowering of the blood pressure",[2]; [3],26.19
CCc1ncc(C)n1CCCNC(=S)NCCSCc1ccc(CN(C)C)o1 [Example No. 9],"R.A. (relative activity), inhibition of the dimaprit-induced lowering of the blood pressure",[2]; [3],10.00
"CNC(=C[N+](=O)[O-])NCCSCc1ccc(CN(C)C)o1 [Ranitidine, reference compound]","R.A. (relative activity), inhibition of the gastric secretion",[1],5.23
same,ED 0.75 (dose which increases the pH by 0.75 on average compared with untreated control animals),[1]; in mg/kg,0.086
same,"R.A. (relative activity), inhibition of the dimaprit-induced lowering of the blood pressure","[2]; in vivo, iv",10.48
same,inhibition of dimaprit-induced lowering of the blood pressure (in words),[2]; [4],specific and dose-dependent inhibition
"CN(C)CCCSC(=N)N [dimaprit, S-[3-(N,N-dimethylamino)-propyl]-isothiourea, reference compound]",average lowering of the blood pressure,"[2]; dimaprit 3.16 mg intravenously, initial pressures 100±1.1 mm Hg, N=70",27±0.7 mm Hg
